Reference: patent US5900434A, “Method for inhibiting the production of interleukin-1 or tumor necrosis factor-α by administering acanthoic acid” (Korea Institute of Science and Technology, priority 1994, dated 1999)

Experiments:
Assay type in all cases: cell-based
[1] = test system: H2O2 production in human neutrophils; experiment: Production of H2O2 in human neutrophils (PMA-stimulated)
Protocol: Normal human peripheral blood was heparin-treated and diluted with equal amount of Hank's balanced salt solution (HBSS: Ca^2+ and Mg^2+ free). The diluted blood was put into a centrifuge tube containing therein Ficoll-Hypaque(Sigma, St. Louis, Mo., U.S.A.) layer having a density of 1.077 piled up on Ficoll-Hypaque layer having a density of 1.119, and then centrifuged at 700×g for 30 minutes to obtain monocytes from the layer between Ficoll-Hypaque layer having a density of 1.077 and serum layer, and neutrophils from the layer between Ficoll-Hypaque layer having a density of 1.077 and that having a density of 1.119. The separated cells were washed twice with 4° C. HBSS(Ca^2+ and Mg^2+ free) and suspended in RPMI 1640 medium(Gibco, Grand Island, N.Y., U.S.A.) containing 10% fetal bovine serum(FBS, Hyclone, Logan, Utah, U.S.A.). The suspensions were added to the wells of 24-well incubation plate(Costar, Cambridge, Mass., U.S.A.) and incubated at 37° C. for 2 hours to obtain monocytes, macrophages and neutrophils. Inflammatory responses are known as a cascade reaction comprising the secretion of various cytokines, e.g., IL-1, from immune cells stimulated by various stimulants; production of phospholipase A2, lysosomal enzyme, reactive oxygen species, etc. by other immune cells stimulated by said cytokines; and damage of tissues induced by the above products(Pruzanski, W. and […]., Immunol. Today, 12, 143(1991)). The ability of acanthoic acid to block the inflammatory reactions was tested by measuring their inhibitory activity to the production of reactive oxygen species, i.e., H2 O2 and O2^-. The amount of H2 O2 was determined by a microassay employing 96-well microplate as follows. 5×10^5 cells of neutrophils were added to each of the wells containing RPMI 1640 medium, and then 25 μl of horseradish peroxidase (500 μg/ml; type II, Sigma) and 75 μl of phenol red(1 mg/ml) were added to each of the wells. Thereafter, the cells were treated with 10, 20 and 50 μg/ml of acanthoic acid for an hour, stimulated with 10^-7 M phorbol myristate acetate(PMA) and then incubated at 37° C. for 60 minutes. When the incubation was completed, 3M NaOH was added to the wells in an amount of 25 μl/well to stop the reaction and O.D. was measured at 620 nm by using ELISA reader(Dynatech Lab. Inc.) to determine the change of colors with respect to the oxidation of phenol. The amount of H2 O2 was determined by employing a standard curve prepared by diluted H2 O2 (Sigma).

[2] = test system: NIH3T3 fibroblasts; experiment: Inhibition of proliferation of NIH3T3 fibroblasts (3H-thymidine); details: dialyzate of monocytes/macrophages treated with 10 μg/ml acanthoic acid and silica; 5 days; FIG. 6
Protocol: NIH3T3 fibroblast(ATCC CRL 1658) was cultured in RPMI 1640 medium containing 10% FBS under the same conditions as described above. Acanthoic acid was added in various concentrations to 5×10^5 /ml of cells obtained in the above procedures, and the cells were precultured at 37° C. for 1 hour in 5% CO2 incubator. Then, 1 ml each of silica(100 μg/ml) and RPMI 1640 medium containing 2% FBS were added thereto and the cells were cultured under the same conditions as above for 48 hours. The culture supernatant was collected and centrifuged at 1,500 rpm for 10 minutes to remove the cells and silica. The obtained supernatant was dialyzed against PBS and filtered by 0.2 μm filtration syringe, and the filtrate was stored at -20° C. Fibrosis is caused largely by the proliferation of fibroblasts or by the synthesis of collagen. To confirm the effect of acanthoic acid on the proliferation of fibroblasts, human monocytes and macrophages were treated with 10 μg/ml of acanthoic acid and cultured according to the procedure as described in Reference Example 1 (3). The culture was dialyzed against PBS, and 50 μl of the dialyzate was added to the wells of an incubation plate. […] The amount of ^3 H-thymidine incorporated in the cell was determined by employing liquid scintillation counter(FIG. 6). […]

[3] = test system: TNF-α production in rat alveolar macrophages and lymphocytes; experiment: Inhibition of TNF-α production in rat alveolar macrophages and lymphocytes; details: 10 μg/ml; 100 μg/ml silica, 3 days; FIG. 4
Protocol: TNF-α dependent L929 fibroblasts(ATCC CCLl) were suspended in RPMI 1640 medium containing 5% FBS and added to the wells of 96-well incubation plate in an amount of 3×10^4 cells/well. The plate was incubated at 37° C. for 2 hours to make the cells adhere to the incubation plate. Then, the medium was removed and 1 μg/ml of actinomycin D(Sigma) and 50 μl of culture dialyzate of monocytes and macrophages obtained in Example 1 were added to each of the wells. The final concentration of FBS in each well was adjusted to 5% and the cells were incubated at 37° C. under 5% CO2 for 24 hours.
When the incubation was completed, the medium was removed and the cells were washed twice with PBS and stained for 5 minutes with 0.5% crystal violet solution in 20% methanol. The cells were washed three times with PBS and dried. Then, 100 μl of 33% acetic acid was added to each of the wells to release the dye, and then the O.D. of sample obtained from each of the wells was determined by using ELISA reader with 570 nm reading filter and 405 nm reference filter. The amount of released dye was calculated from the O.D. value with reference to that of the internal control group, i.e., rHu TNF-α(Genzyme). […]

C=C[C@@]1(C)CC=C2C(CCC3[C@](C)(C(=O)O)CCC[C@@]23C)C1 (single isomer, unassigned; (-)) [acanthoic acid, (-)-pimara-9(11),15-diene-19-oic acid]
activity at 10 µg/mL ([1]; Neutrophil, 1 h, PMA + acanthoic acid 10 μg/ml, PMA = 100, read-out: Amount of produced reactive oxygen species, H2O2 (% to the control group)): 70%
activity at 20 µg/mL ([1]; Neutrophil, 1 h, PMA + acanthoic acid 20 μg/ml, PMA = 100, read-out: Amount of produced reactive oxygen species, H2O2 (% to the control group)): 37.4%
activity at 50 µg/mL ([1]; Neutrophil, 1 h, PMA + acanthoic acid 50 μg/ml, PMA = 100, read-out: Amount of produced reactive oxygen species, H2O2 (% to the control group)): 15.8%
Amount of produced reactive oxygen species, H2O2 ([1]; PMA + acanthoic acid 10 μg/ml): 72.6 nM/60 min.
Amount of produced reactive oxygen species, H2O2 ([1]; PMA + acanthoic acid 20 μg/ml): 38.7 nM/60 min.
Amount of produced reactive oxygen species, H2O2 ([1]; PMA + acanthoic acid 50 μg/ml): 16.4 nM/60 min.
proliferation of fibroblasts [2]: inhibited significantly
inhibition of production of TNF-α [3]: inhibited
